According to paper PMC2593051, “Biochemical and Genetic Characterization of PspE and GlpE, Two Single-domain Sulfurtransferases of Escherichia coli” (The Open Microbiology Journal, 2008):
Counter-ions that a name gives are not always drawn. Each block holds one molecule with its values, some of them ahead of it.

Legend:
PspE (fraction PspE2) [1] = target: T1, PspE (fraction PspE2) (Escherichia coli, UniProt P23857); assay: chemical inactivation by cysteine reagent; assay type: biochemical; details: covalent; active-site cysteine; fraction PspE1 more tolerant than PspE2; data not shown
T1 construct: 85 residues, 9428 Da; untagged; overexpressed from pHC4.1 (pT7-7) in E. coli BL21(DE3), freeze-thaw extract, SP cation exchange; partly persulfide/sulfonate modified at single cysteine
T1 sequence (P23857 20-104): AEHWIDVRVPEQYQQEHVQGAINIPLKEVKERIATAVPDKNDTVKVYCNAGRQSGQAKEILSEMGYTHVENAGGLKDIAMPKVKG

PspE (fraction PspE2) [2] = target: T1, PspE (fraction PspE2); assay: rhodanese assay; assay type: biochemical; details: Tris-acetate pH 8.6; for % inhibition at 0.25 M: 250000 µM, anion inhibition
purified protein [3] = substrate: O=S(O)(O)=S; assay: purified protein; assay type: biochemical, Escherichia coli; details: pH 8.6; 25.0 °C
purified protein [4] = substrate: OC(CS)C(O)CS; assay: purified protein; assay type: biochemical, Escherichia coli; details: sulfur acceptor, 4 mM or 10 mM thiosulfate, Tris-acetate pH 8.6, PspE fraction not stated

Molecule: O=C(O)c1cc(SSc2ccc([N+](=O)[O-])c(C(=O)O)c2)ccc1[N+](=O)[O-] [5,5’-dithio-bis(2-nitrobenzoic acid)]
chemical inactivation by cysteine reagent (PspE (fraction PspE2) [1]): PspE1 was much more tolerant to chemical inactivation by the cysteine-modifying reagent

% inhibition at 0.25 M (PspE (fraction PspE2) [2]): ~ 65%
Molecule: O=P(O)(O)O [sodium phosphate]

% inhibition at 1 mM (PspE (fraction PspE2) [2]; rhodanese product as inhibitor, data not shown): > 50%
Molecule: O=S(O)O [sodium sulfite]

Molecule: O=S(=O)(O)O [sodium sulfate]
% inhibition at 0.25 M (PspE (fraction PspE2) [2]): ~ 50%

B1: PspE (fraction PspE2) (Escherichia coli K-12) (protein)
chain: T1 sequence (P23857 20-104)
notes: 85 residues, 9428 Da; untagged; overexpressed from pHC4.1 (pT7-7) in E. coli BL21(DE3), freeze-thaw extract, SP cation exchange; partly persulfide/sulfonate modified at single cysteine
Km (purified protein [3]): 2.7 mM | kcat (purified protein [3]): 64 s⁻¹ | Km (purified protein [4]): 10 mM
